Source: ChEMBL document CHEMBL4706552, “Discovery of 4-methyl-N-(4-((4-methylpiperazin- 1-yl)methyl)-3-(trifluoromethyl)phenyl)-3-((6-(pyridin-3-yl)-1H-pyrazolo[3,4-d]pyrimidin-4-yl)-oxy)benzamide as a potent inhibitor of RET and its gatekeeper mutant” (Eur J Med Chem, 2020)
Active and inactive are the calls of the source. The calls are words filed in the database; no cut-off is given here.

What was measured:
[1] = AUC (0 to infinity) in Sprague-Dawley rat at 1 mg/kg, iv; format: ADME, organism-based; design: route intravenous, time infinity, dose 1 mg/kg; settings: in vivo
[2] = AUC (0 to infinity) in Sprague-Dawley rat at 10 mg/kg, po; format: ADME, organism-based; design: time infinity, route oral, dose 10 mg/kg; settings: in vivo
[3] = system: Kinesin-1 heavy chain/ Tyrosine-protein kinase receptor RET (Homo sapiens), P07949+P33176 [V804M]; assay: Inhibition of KIF5B-RET V804M mutant fusion protein (unknown origin) expressed in mouse BaF3 cells assessed as reduction in ERK phosphorylation at 500 nM measured after 4 hrs by Western blot analysis; format: cell-based
[4] = AUC (0 to t) in Sprague-Dawley rat at 10 mg/kg, po; format: ADME, organism-based; design: dose 10 mg/kg; settings: in vivo
[5] = system: Kinesin-1 heavy chain/ Tyrosine-protein kinase receptor RET (Homo sapiens), P07949+P33176 [V804M]; assay: Inhibition of KIF5B-RET V804M mutant fusion protein (unknown origin) expressed in mouse BaF3 cells assessed as reduction in AKT phosphorylation at 500 nM measured after 4 hrs by Western blot analysis; format: cell-based
[6] = system: Kinesin-1 heavy chain/ Tyrosine-protein kinase receptor RET (Homo sapiens), P07949+P33176 [V804M]; assay: Inhibition of KIF5B-RET V804M mutant fusion protein (unknown origin) expressed in mouse BaF3 cells assessed as reduction in RET autophosphorylation at 100 nM measured after 4 hrs by Western blot analysis; format: cell-based
[7] = system: HepG2; assay: Antiproliferative activity against human HepG2 cells at 3.3 uM measured after 48 hrs by MTS assay; format: functional; settings: read-out: GI
[8] = biological target: T1, Coiled-coil domain-containing protein 6/Tyrosine-protein kinase receptor RET (Homo sapiens) (UniProt P07949+Q16204); assay: Inhibition of CCDC6-RET fusion protein (unknown origin) expressed in mouse BaF3 cells assessed as reduction in SHC phosphorylation at 10 to 500 nM measured after 4 hrs by Western blot analysis; format: cell-based; settings: dose 10-500 nM
[9] = system: A549; assay: Antiproliferative activity against human A549 cells measured after 48 hrs by MTS assay; format: functional
[10] = Tmax in Sprague-Dawley rat at 10 mg/kg, po; format: ADME, organism-based; settings: in vivo
[11] = system: BaF3; assay: Inhibition of CCDC6-RET V804M mutant fusion protein (unknown origin) expressed in mouse BaF3 cells assessed as reduction in AKT phosphorylation at 10 to 500 nM measured after 4 hrs by Western blot analysis; format: cell-based; settings: Homo sapiens, dose 10-500 nM
[12] = system: BaF3; assay: Induction of apoptosis in KIF5B-RET fusion protein expressing mouse BaF3 cells implanted in BALB/c mouse assessed as increase in cleaved caspase-3 level at 30 to 50 mg/kg, iv administered once daily for 7 days measured 4 hrs post last dose by H and E staining based immunohistochemical analysis; format: functional, organism-based; settings: dose 30-50 mg/kg, time 7.0 day
[13] = system: Proto-oncogene tyrosine-protein kinase receptor Ret (Homo sapiens), P07949 [V804M]; assay: Binding affinity to wild-type human partial length RET V804M mutant (E713 to D1014 residues) expressed in bacterial expression system assessed as residual binding level at 1 uM by kinomescan method relative to control
[14] = AUC (0 to t) in Sprague-Dawley rat at 1 mg/kg, iv; format: ADME, organism-based; design: dose 1 mg/kg; settings: in vivo
[15] = Cytotoxicity against mouse BaF3 cells assessed as reduction in cell proliferation measured after 48 hrs by MTS assay; format: cell-based
[16] = system: Mus musculus; assay: In vivo inhibition of KIF5B-RET V804M mutant fusion protein in BALB/c mouse implanted with KIF5B-RET V804M mutant fusion protein expressing mouse BaF3 cells assessed as reduction in RET phosphorylation at 30 to 50 mg/kg, iv administered daily for 7 days and measured 4 hrs post last dose by Western blot analysis; format: functional, organism-based; settings: dose 30-50 mg/kg, time 7.0 day
[17] = biological target: T2, Proto-oncogene tyrosine-protein kinase receptor Ret (Homo sapiens, UniProt P07949); assay: Binding affinity to wild-type human partial length RET (E713 to D1014 residues) expressed in bacterial expression system assessed as residual binding level at 1 uM by kinomescan method relative to control
[18] = system: Mus musculus; assay: In vivo inhibition of KIF5B-RET fusion protein in BALB/c mouse implanted with KIF5B-RET fusion protein expressing mouse BaF3 cells assessed as reduction in RET phosphorylation at 30 to 50 mg/kg, iv administered daily for 7 days and measured 4 hrs post last dose by Western blot analysis; format: functional, organism-based; settings: dose 30-50 mg/kg, time 7.0 day
[19] = system: BaF3; assay: Inhibition of CCDC6-RET V804M mutant fusion protein (unknown origin) expressed in mouse BaF3 cells assessed as reduction in cell proliferation measured after 48 hrs by MTS assay; format: cell-based; settings: Homo sapiens
[20] = biological target: T1, Coiled-coil domain-containing protein 6/Tyrosine-protein kinase receptor RET (Homo sapiens); assay: Inhibition of CCDC6-RET fusion protein (unknown origin) expressed in mouse BaF3 cells assessed as reduction in AKT phosphorylation at 10 to 500 nM measured after 4 hrs by Western blot analysis; format: cell-based; settings: dose 10-500 nM
[21] = Toxicity in BALB/c mouse implanted with KIF5B-RET V804M mutant fusion protein expressing mouse BaF3 cells assessed as body weight loss at 30 to 50 mg/kg, iv administered daily for 7 days measured daily during compound dosing; format: organism-based; settings: in vivo, 168 h, dose 30-50 mg/kg, time 7 day
[22] = biological target: T1, Coiled-coil domain-containing protein 6/Tyrosine-protein kinase receptor RET (Homo sapiens); assay: Inhibition of CCDC6-RET fusion protein (unknown origin) expressed in mouse BaF3 cells assessed as reduction in cell proliferation measured after 48 hrs by MTS assay; format: cell-based
[23] = system: Mus musculus; assay: In vivo inhibition of KIF5B-RET fusion protein in BALB/c mouse implanted with KIF5B-RET fusion protein expressing mouse BaF3 cells assessed as reduction in SHC phosphorylation at 30 to 50 mg/kg, iv administered daily for 7 days and measured 4 hrs post last dose by Western blot analysis; format: functional, organism-based; settings: dose 30-50 mg/kg, time 7.0 day
[24] = biological target: T1, Coiled-coil domain-containing protein 6/Tyrosine-protein kinase receptor RET (Homo sapiens); assay: Inhibition of CCDC6-RET fusion protein (unknown origin) expressed in mouse BaF3 cells assessed as reduction in RET phosphorylation at 10 to 500 nM measured after 4 hrs by Western blot analysis; format: cell-based; settings: dose 10-500 nM
[25] = biological target: T2, Proto-oncogene tyrosine-protein kinase receptor Ret; assay: Inhibition of recombinant wild-type human N-terminal GST-HIS6 fused RET C-terminal domain (H658 to S1114 residues) expressed in Sf9 insect cells using TRK-C-derived peptide as substrate in presence of [33P]-ATP by filter binding assay
[26] = biological target: Kinesin-1 heavy chain/ Tyrosine-protein kinase receptor RET (Homo sapiens) (UniProt P07949+P33176); assay: Inhibition of KIF5B-RET fusion protein (unknown origin) expressed in mouse BaF3 cells assessed as reduction in […] measured after 4 hrs by Western blot analysis; format: cell-based
[27] = Half life in Sprague-Dawley rat at 1 mg/kg, iv; format: ADME, organism-based; settings: in vivo
[28] = system: A-375; assay: Antiproliferative activity against human A-375 cells measured after 48 hrs by MTS assay; format: functional
[29] = Toxicity in BALB/c mouse implanted with KIF5B-RET fusion protein expressing mouse BaF3 cells assessed as body weight loss at 30 to 50 mg/kg, iv administered daily for 7 days measured daily during compound dosing; format: organism-based; settings: in vivo, 168 h, dose 30-50 mg/kg, time 7 day
[30] = system: BaF3; assay: Antitumor activity against KIF5B-RET V804M mutant fusion protein expressing mouse BaF3 cells implanted in BALB/c mouse assessed as tumor growth inhibition at 30 to 50 mg/kg, iv administered once daily for 7 days relative to control; format: functional; settings: dose 30-50 mg/kg, time 7 day
[31] = biological target: Proto-oncogene tyrosine-protein kinase receptor Ret (Homo sapiens, UniProt P07949, V804L); assay: Inhibition of recombinant human N-terminal GST-HIS6 fused RET V804L mutant C-terminal domain (H658 to S1114 residues) expressed in Sf9 insect cells using TRK-C-derived peptide as substrate in presence of [33P]-ATP by filter binding assay
Chain of Proto-oncogene tyrosine-protein kinase receptor Ret (Homo sapiens, UniProt P07949, V804L) (P07949 29-1114 V804L limits assumed): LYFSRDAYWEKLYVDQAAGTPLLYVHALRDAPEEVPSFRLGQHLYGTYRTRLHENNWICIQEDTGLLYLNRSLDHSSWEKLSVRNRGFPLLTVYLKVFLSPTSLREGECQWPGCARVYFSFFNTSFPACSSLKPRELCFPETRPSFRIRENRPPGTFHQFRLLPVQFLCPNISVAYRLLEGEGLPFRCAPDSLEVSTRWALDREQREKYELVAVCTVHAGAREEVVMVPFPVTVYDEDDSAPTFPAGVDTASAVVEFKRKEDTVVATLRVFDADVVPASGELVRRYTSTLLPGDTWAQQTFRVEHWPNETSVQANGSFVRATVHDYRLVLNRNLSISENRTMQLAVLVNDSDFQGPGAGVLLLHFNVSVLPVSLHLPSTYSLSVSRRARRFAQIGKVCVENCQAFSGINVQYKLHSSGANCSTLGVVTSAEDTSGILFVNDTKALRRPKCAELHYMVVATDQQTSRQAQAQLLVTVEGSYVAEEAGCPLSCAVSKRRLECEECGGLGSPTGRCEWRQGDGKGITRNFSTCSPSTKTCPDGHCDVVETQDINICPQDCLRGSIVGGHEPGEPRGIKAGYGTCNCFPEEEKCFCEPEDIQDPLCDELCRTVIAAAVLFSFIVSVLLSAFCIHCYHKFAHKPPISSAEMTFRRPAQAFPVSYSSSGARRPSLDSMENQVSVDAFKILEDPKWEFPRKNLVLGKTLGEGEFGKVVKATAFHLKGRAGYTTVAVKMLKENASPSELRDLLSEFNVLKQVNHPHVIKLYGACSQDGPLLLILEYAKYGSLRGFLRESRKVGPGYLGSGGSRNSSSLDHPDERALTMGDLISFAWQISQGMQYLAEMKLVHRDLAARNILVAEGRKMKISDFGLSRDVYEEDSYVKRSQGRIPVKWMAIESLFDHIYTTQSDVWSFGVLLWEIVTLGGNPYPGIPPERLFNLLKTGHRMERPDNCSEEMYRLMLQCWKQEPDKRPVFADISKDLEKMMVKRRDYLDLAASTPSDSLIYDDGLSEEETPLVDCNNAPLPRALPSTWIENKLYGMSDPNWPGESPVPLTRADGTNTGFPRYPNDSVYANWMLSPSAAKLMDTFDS

T1 sequence (P07949 29-1114 limits assumed): as the sequence (P07949 29-1114 V804L limits assumed) above, with L776V counted along it
T1 sequence (Q16204 2-474 partner limits assumed): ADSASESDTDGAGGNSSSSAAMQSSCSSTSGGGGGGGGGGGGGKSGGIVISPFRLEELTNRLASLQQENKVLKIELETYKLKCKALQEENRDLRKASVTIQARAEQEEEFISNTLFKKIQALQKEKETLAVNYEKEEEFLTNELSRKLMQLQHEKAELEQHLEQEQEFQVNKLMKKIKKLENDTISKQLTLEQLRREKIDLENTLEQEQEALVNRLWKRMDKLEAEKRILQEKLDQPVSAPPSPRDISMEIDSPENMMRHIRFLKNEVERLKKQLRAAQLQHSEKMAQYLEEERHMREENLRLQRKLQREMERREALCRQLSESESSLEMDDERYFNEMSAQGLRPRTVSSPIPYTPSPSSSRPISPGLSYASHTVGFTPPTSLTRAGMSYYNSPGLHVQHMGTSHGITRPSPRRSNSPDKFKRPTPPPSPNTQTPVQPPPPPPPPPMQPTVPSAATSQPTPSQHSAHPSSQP
T2 sequence (P07949 whole entry, the tested form may be a part): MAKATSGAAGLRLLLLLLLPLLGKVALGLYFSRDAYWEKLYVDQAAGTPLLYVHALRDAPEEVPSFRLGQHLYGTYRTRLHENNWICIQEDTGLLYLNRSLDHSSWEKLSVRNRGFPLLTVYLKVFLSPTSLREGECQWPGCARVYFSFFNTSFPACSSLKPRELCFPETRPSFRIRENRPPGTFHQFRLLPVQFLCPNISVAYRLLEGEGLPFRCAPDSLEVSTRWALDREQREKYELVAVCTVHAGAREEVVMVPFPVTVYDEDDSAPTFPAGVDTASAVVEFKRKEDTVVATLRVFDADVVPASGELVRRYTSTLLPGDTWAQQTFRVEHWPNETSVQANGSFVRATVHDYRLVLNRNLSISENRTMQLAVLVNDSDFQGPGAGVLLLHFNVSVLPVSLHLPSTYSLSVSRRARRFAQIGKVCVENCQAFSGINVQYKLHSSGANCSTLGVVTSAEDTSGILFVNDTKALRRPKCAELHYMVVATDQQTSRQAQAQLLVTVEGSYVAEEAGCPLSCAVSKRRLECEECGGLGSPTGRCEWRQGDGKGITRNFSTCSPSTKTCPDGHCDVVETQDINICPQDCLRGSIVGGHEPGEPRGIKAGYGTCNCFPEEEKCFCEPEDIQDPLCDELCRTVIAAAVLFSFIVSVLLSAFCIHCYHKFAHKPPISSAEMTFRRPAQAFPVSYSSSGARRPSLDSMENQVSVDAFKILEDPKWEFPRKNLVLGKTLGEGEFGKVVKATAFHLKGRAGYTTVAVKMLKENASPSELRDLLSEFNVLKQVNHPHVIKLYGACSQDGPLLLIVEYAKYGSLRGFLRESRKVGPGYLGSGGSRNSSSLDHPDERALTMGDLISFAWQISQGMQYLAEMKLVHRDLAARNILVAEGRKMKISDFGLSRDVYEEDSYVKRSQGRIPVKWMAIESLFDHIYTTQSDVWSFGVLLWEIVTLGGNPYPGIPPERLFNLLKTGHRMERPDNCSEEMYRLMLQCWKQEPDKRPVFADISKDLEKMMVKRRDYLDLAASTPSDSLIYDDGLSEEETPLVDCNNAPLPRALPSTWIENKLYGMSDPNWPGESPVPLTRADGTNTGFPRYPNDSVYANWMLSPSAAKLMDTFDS
Chain of Proto-oncogene tyrosine-protein kinase receptor Ret (Homo sapiens), P07949 [V804M] (P07949 whole entry V804M, the tested form may be a part): as the sequence (P07949 whole entry, the tested form may be a part) above, with V804M counted along it
Chain of Kinesin-1 heavy chain/ Tyrosine-protein kinase receptor RET (Homo sapiens) (P07949 29-1114 limits assumed): as the sequence (P07949 29-1114 V804L limits assumed) above, with L776V counted along it
Chain of Kinesin-1 heavy chain/ Tyrosine-protein kinase receptor RET (Homo sapiens) (P33176 2-963 partner limits assumed): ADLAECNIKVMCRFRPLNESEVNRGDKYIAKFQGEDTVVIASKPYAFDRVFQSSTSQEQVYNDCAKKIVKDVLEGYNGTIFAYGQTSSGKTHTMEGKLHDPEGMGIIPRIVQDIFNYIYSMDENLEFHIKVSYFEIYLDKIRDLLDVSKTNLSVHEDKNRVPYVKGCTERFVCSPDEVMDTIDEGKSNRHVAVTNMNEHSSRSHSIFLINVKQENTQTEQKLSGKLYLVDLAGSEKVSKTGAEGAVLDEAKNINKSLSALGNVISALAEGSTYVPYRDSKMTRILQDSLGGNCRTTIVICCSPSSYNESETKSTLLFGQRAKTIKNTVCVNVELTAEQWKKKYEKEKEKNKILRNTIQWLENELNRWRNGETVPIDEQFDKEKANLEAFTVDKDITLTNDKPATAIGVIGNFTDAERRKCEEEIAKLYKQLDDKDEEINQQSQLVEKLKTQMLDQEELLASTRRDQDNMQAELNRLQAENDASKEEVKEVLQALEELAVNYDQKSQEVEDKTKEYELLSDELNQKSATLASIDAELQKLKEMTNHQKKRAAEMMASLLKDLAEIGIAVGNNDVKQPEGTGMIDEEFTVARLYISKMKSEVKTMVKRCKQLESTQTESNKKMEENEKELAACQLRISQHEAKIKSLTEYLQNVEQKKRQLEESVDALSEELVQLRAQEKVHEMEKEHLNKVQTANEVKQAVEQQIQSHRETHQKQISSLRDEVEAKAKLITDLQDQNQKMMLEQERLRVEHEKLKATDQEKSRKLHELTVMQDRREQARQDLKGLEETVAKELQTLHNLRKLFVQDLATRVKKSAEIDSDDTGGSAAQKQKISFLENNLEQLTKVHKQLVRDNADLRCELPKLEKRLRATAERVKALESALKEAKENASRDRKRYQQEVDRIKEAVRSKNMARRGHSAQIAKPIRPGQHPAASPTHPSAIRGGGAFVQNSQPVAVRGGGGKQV

Cc1ccc(C(=O)Nc2ccc(CN3CCN(C)CC3)c(C(F)(F)F)c2)cc1Oc1nc(-c2cccnc2)nc2[nH]ncc12
AUC(0-inf) [1]: 7010 ng·h/mL | AUC(0-inf) [2]: 2340 ng·h/mL | inhibition [3]: Active | AUC(0-t) [4]: 2110 ng·h/mL | inhibition [5]: Active | inhibition [6]: Dose-dependent effect | inhibition of growth at 3.3 µM [7]: 33% | inhibition [8]: Active | GI50 [9]: 3390 nM | Tmax [10]: 0.75 h | inhibition [11]: Active | Activity [12]: Active | Activity [13]: 0.25% | AUC(0-t) [14]: 6960 ng·h/mL | GI50 at 48 h [15]: 8030 nM | inhibition [16]: Dose-dependent effect | Activity [17]: 0.05% | inhibition [18]: Dose-dependent effect | GI50 [19]: 45 nM | inhibition [20]: Active | Activity [21]: Non-Toxic | GI50 [22]: 9 nM | inhibition [23]: Dose-dependent effect | inhibition [24]: Active | IC50 [25]: 3.98 nM | inhibition [26]: Dose-dependent effect | half-life [27]: 4.28 h | GI50 [28]: 2950 nM | Activity [29]: Non-Toxic | TGI [30]: >60% | IC50 [31]: 15.1 nM
